# From ChEMBL document CHEMBL3885881, “DrugMatrix”
# Species on record: Rattus norvegicus
# Test: DrugMatrix - Regimen: Daily Repeat
# Assay type: toxicity, organism-based, Sprague-Dawley
# Parameters: regimen Daily Repeat, gender Male, age 6-8 weeks
# Details: in vivo, po, 2 mg/kg, route oral GAVAGE, dose level High, vehicle 100 % WATER; for ABSOLUTE BASOPHIL / ABSOLUTE EOSINOPHIL / ABSOLUTE LYMPHOCYTE / ABSOLUTE MONOCYTE / ABSOLUTE SEGMENTED NEUTROPHIL / BASOPHIL / EOSINOPHIL / ERYTHROCYTE COUNT / HEMATOCRIT / HEMOGLOBIN / LEUKOCYTE COUNT / LYMPHOCYTE / MEAN CORPUSCULAR HEMOGLOBIN / MEAN CORPUSCULAR HEMOGLOBIN CONCENTRATION / MEAN CORPUSCULAR VOLUME / MONOCYTE / NEUTROPHIL / NUCLEATED RED BLOOD CELLS / PLATELET COUNT: tissue Blood; for ALANINE AMINOTRANSFERASE / ALBUMIN / ALKALINE PHOSPHATASE / ASPARTATE AMINOTRANSFERASE / BLOOD UREA NITROGEN / CARBON DIOXIDE / CHLORIDE / CHOLESTEROL / CREATININE / GLUCOSE / LACTATE DEHYDROGENASE / LIPASE / PHOSPHORUS / POTASSIUM / SODIUM / TOTAL BILIRUBIN / TOTAL PROTEIN / URIC ACID: tissue Plasma
structure (smiles),measurement,setting,value
O=[Se]([O-])[O-].[Na+].[Na+] [SODIUM SELENITE],ABSOLUTE BASOPHIL,"120 h, time 5 day",0 CELLS/uL
same,ABSOLUTE EOSINOPHIL,"120 h, time 5 day",0 CELLS/uL
same,ABSOLUTE LYMPHOCYTE,"120 h, time 5 day",10507.33 CELLS/uL
same,ABSOLUTE MONOCYTE,"120 h, time 5 day",251 CELLS/uL
same,ABSOLUTE SEGMENTED NEUTROPHIL,"120 h, time 5 day",875 CELLS/uL
same,BASOPHIL,"120 h, time 5 day",0%
same,EOSINOPHIL,"120 h, time 5 day",0%
same,ERYTHROCYTE COUNT,"120 h, time 5 day",5.43 x10E6/uL
same,HEMATOCRIT,"120 h, time 5 day",33.4%
same,HEMOGLOBIN,"120 h, time 5 day",12.4 G/DL
same,LEUKOCYTE COUNT,"120 h, time 5 day",11.63 x10E3/uL
same,LYMPHOCYTE,"120 h, time 5 day",90.33%
same,MEAN CORPUSCULAR HEMOGLOBIN,"120 h, time 5 day",22.87 pg
same,MEAN CORPUSCULAR HEMOGLOBIN CONCENTRATION,"120 h, time 5 day",37.17 G/DL
same,MEAN CORPUSCULAR VOLUME,"120 h, time 5 day",61.53 fL
same,MONOCYTE,"120 h, time 5 day",2%
same,NEUTROPHIL,"120 h, time 5 day",7.67%
same,NUCLEATED RED BLOOD CELLS,"120 h, time 5 day",0 /100WBC
same,PLATELET COUNT,"120 h, time 5 day",896.33 x10E3/uL
same,ALANINE AMINOTRANSFERASE,"120 h, time 5 day",56.33 u/L
same,ALBUMIN,"120 h, time 5 day",4.77 G/DL
same,ALKALINE PHOSPHATASE,"120 h, time 5 day",396 u/L
same,ASPARTATE AMINOTRANSFERASE,"120 h, time 5 day",80.67 u/L
same,BLOOD UREA NITROGEN,"120 h, time 5 day",12.33 mg/dL
same,CARBON DIOXIDE,"120 h, time 5 day",33.33 mmol/L
same,CHLORIDE,"120 h, time 5 day",98.33 MEQ/L
same,CHOLESTEROL,"120 h, time 5 day",86.33 mg/dL
same,CREATININE,"120 h, time 5 day",0.14 mg/dL
same,GLUCOSE,"120 h, time 5 day",141 mg/dL
same,LACTATE DEHYDROGENASE,"120 h, time 5 day",84 u/L
same,LIPASE,"120 h, time 5 day",8.33 u/L
same,PHOSPHORUS,"120 h, time 5 day",13.2 mg/dL
same,POTASSIUM,"120 h, time 5 day",6.3 MEQ/L
same,SODIUM,"120 h, time 5 day",145.1 MEQ/L
same,TOTAL BILIRUBIN,"120 h, time 5 day",0.2 mg/dL
same,TOTAL PROTEIN,"120 h, time 5 day",6.87 G/DL
same,URIC ACID,"120 h, time 5 day",0.67 mg/dL
same,ABSOLUTE BASOPHIL,"[…], time 14 day",0 CELLS/uL
same,ABSOLUTE EOSINOPHIL,"[…], time 14 day",217 CELLS/uL
same,ABSOLUTE LYMPHOCYTE,"[…], time 14 day",17297 CELLS/uL
same,ABSOLUTE MONOCYTE,"[…], time 14 day",361.6 CELLS/uL
same,ABSOLUTE SEGMENTED NEUTROPHIL,"[…], time 14 day",2204.4 CELLS/uL
same,BASOPHIL,"[…], time 14 day",0%
same,EOSINOPHIL,"[…], time 14 day",1.2%
same,ERYTHROCYTE COUNT,"[…], time 14 day",6.02 x10E6/uL
same,HEMATOCRIT,"[…], time 14 day",35.24%
same,HEMOGLOBIN,"[…], time 14 day",13.22 G/DL
same,LEUKOCYTE COUNT,"[…], time 14 day",20.08 x10E3/uL
same,LYMPHOCYTE,"[…], time 14 day",85.8%
same,MEAN CORPUSCULAR HEMOGLOBIN,"[…], time 14 day",21.98 pg
same,MEAN CORPUSCULAR HEMOGLOBIN CONCENTRATION,"[…], time 14 day",37.54 G/DL
same,MEAN CORPUSCULAR VOLUME,"[…], time 14 day",58.52 fL
same,MONOCYTE,"[…], time 14 day",1.8%
same,NEUTROPHIL,"[…], time 14 day",11.2%
same,NUCLEATED RED BLOOD CELLS,"[…], time 14 day",0 /100WBC
same,PLATELET COUNT,"[…], time 14 day",1010.8 x10E3/uL
same,ALANINE AMINOTRANSFERASE,"[…], time 14 day",60.2 u/L
same,ALBUMIN,"[…], time 14 day",4.26 G/DL
same,ALKALINE PHOSPHATASE,"[…], time 14 day",330.2 u/L
same,ASPARTATE AMINOTRANSFERASE,"[…], time 14 day",119.4 u/L
same,BLOOD UREA NITROGEN,"[…], time 14 day",14 mg/dL
same,CARBON DIOXIDE,"[…], time 14 day",22.8 mmol/L
same,CHLORIDE,"[…], time 14 day",104.2 MEQ/L
same,CHOLESTEROL,"[…], time 14 day",62.8 mg/dL
same,CREATININE,"[…], time 14 day",0.21 mg/dL
same,GLUCOSE,"[…], time 14 day",199.6 mg/dL
same,LACTATE DEHYDROGENASE,"[…], time 14 day",281.2 u/L
same,LIPASE,"[…], time 14 day",8 u/L
same,PHOSPHORUS,"[…], time 14 day",13.28 mg/dL
same,POTASSIUM,"[…], time 14 day",5.95 MEQ/L
same,SODIUM,"[…], time 14 day",148.62 MEQ/L
same,TOTAL BILIRUBIN,"[…], time 14 day",0.16 mg/dL
same,TOTAL PROTEIN,"[…], time 14 day",6.16 G/DL
same,URIC ACID,"[…], time 14 day",2.08 mg/dL
